Results published in patent publication US11505586B2, “Interaction of Draxin and γ-netrins” (Max-Planck-Gesellschaft zur Foerderung der Wissenschaften …, priority 2014, dated 2022).

Experiments:
[1] = biological target: T1, Netrin-1 (Homo sapiens, UniProt O95631); assay: AVEXIS pairwise binding screen, human proteins; settings: both bait/prey orientations
T1 construct: made in house; host or cells: HEK293-6E (general AVEXIS method)
Text: (§1) AVEXIS was used to test pairwise binding events in both bait/prey orientations between human DRAXIN, the derived 21 amino acid peptide, human Netrin family members, and two representative Netrin receptors (DCC, UNC5B). The Matn4-bait served as an internal prey-protein control and was used for normalization of the A486 nm values; conditioned medium (CM) serves as negative control; n=3.
(§2) To determine the binding specificity of DRAXIN/Netrin interactions, we carried out a pairwise binding screen between human DRAXIN and human Netrin family members. Except Netrin-5, we included all human Netrin family members consisting of two secreted γ-Netrins (Netrin-1 and Netrin-3) and one secreted (Netrin-4) and two GPI-linked β-Netrins (Netrin-G1 and Netrin-G2) in our binding study. Human DRAXIN and a 21 amino acid Netrin binding fragment derived thereof (SEQ ID NO.: 1) bound to Netrin-1 and Netrin-3 but not to human β-Netrin family members (FIG. 13).

[2] = biological target: T2, Netrin-3 (Homo sapiens, UniProt O00634); assay: AVEXIS pairwise binding screen, human proteins; settings: both bait/prey orientations
T2 construct: made in house; host or cells: HEK293-6E (general AVEXIS method)
Text: as §1, §2

[3] = test system: human β-Netrin family members; assay: AVEXIS pairwise binding screen, human proteins; settings: Netrin-4, Netrin-G1, Netrin-G2
Text: as §1, §2

[4] = test system: Netrin1a; assay: AVEXIS extracellular protein-protein interaction screen; type: binding, zebrafish; settings: prey against 141 bait proteins, bait against 191 prey proteins
Text: To detect extracellular protein-protein interactions in a high-throughput manner we used the AVEXIS assay as described in Bushell et al. (Bushell et al., 2008) with minor modifications.
In brief: A zebrafish protein library enriched for mainly in neuronal tissues expressed secreted proteins and extracellular domains of cell surface proteins has been assembled. The library consists of prey and bait proteins. Preys are composed of the extracellular domain (ECD) of interest followed by a CD4 tag (rat Cd4d3+4) and a pentamerization domain derived from the rat Comp protein followed by β-lactamase. For the bait proteins the ECDs are fused to a CD4 tag and a biotinylation peptide. […] The proteins in the supernatants have been quantified and normalized.
The bait proteins have been immobilized on streptavidin coated 96 well microtiter plates (one bait/well) and incubated for 1 hour at room temperature. […] Then the absorbance at 486 nm of each well has been measured using a μQuant spectrophotometer (BIO-TEK Instruments, INC). […]
In the primary screen interactions were ‘called’ if the absorbance (at 486 nm) of a well after 1 h of incubation was ≥0.1 and 3 Sigma above the standard deviations of the mean of all wells. All interactions detected in the primary screen have been retested in a validation screen by using independently produced batches of proteins.

[5] = test system: Netrin1a; assay: AVEXIS domain mapping with monomeric prey proteins; type: binding, zebrafish; settings: monomeric preys
Procedure: For the binding interface mapping experiments we used monomeric prey proteins. The concentration of the monomeric preys has been determined as described for the AVEXIS assay (β ? lactamase enzymatic activity). […] Both prey and bait orientations were tested in the domain mapping screen and two repeats for each orientation had been carried out.
To map down the Netrin1a binding region in DraxinA we generated a series of DraxinA truncations and deletions and tested them for binding against Netrin1a (FIG. 4).

[6] = biological target: Islr2; assay: Vasn/Islr2 interaction used to adjust the AVEXIS screen; type: binding; settings: Vasn (Slit-like2)/Islr2, in preparation
Procedure: The bait proteins have been immobilized on streptavidin coated 96 well microtiter plates (one bait/well) and incubated for 1 hour at room temperature. After 3 wash steps using HBS as wash buffer the baits have been probed by 50 μl of normalized prey proteins. After one-hour incubation the non-bound preys have been washed away by 2 washes with HBST (0.05% Tween) followed by two HBS washes. Then 50 μl of nitrocefin/well (0.1 mg/ml) has been added and incubated for 1 h at room temperature. Then the absorbance at 486 nm of each well has been measured using a μQuant spectrophotometer (BIO-TEK Instruments, INC). As a positive control for the prey proteins we used the Matn4 ECD as mono-biotinylated bait protein.

T2 sequence (O00634 28-580): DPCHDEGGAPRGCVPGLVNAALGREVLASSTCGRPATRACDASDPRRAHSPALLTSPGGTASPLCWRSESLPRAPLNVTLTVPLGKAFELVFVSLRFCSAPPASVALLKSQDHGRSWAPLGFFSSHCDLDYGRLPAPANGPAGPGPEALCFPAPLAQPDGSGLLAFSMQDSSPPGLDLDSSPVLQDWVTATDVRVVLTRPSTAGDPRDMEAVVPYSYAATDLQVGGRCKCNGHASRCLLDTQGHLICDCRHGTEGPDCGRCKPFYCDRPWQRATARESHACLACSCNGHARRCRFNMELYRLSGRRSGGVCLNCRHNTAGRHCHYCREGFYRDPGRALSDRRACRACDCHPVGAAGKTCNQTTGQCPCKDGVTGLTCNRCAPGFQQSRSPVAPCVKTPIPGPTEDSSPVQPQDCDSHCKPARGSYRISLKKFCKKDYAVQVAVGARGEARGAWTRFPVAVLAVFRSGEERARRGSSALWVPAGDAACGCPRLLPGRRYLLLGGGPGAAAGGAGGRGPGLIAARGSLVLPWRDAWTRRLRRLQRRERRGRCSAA

Substance: EVMPTLDMALFDWTDYEDLKP (listed as Homo sapiens) [SEQ ID NO.: 1]
- binding to Netrin-1 [1]: bound
- binding to Netrin-3 [2]: bound
- binding to human β-Netrin family members [3]: not

Substance: EVMPTLDMTLFDWTDYEDMKP (Danio rerio) [21aa DraxinA derived peptide, 21aa fragment (aa232-252) of zebrafish DraxinA, as AVEXIS prey or bait]
- binding specificity against protein library ([4]; listed as DraxinAaa232-252-bait): only interacted with the Ntn1a-prey
- binding specificity against protein library ([4]; listed as DraxinAaa232-252-prey): only bound to the Ntn1a-bait
- binding of DraxinA truncations and deletions to Netrin1a [5]: sufficient for the binding

Substance: Vasn: Vasn (Slit-like2), binding partner of Islr2, reference weak interaction
- Kd [6]: 12 µM
